We go through one compound from paper PMC4929566, “The metabolome of [2-^14C](−)-epicatechin in humans: implications for the assessment of efficacy, safety, and mechanisms of action of polyphenolic bioactives” (Scientific Reports, 2016).

A short description of series [1]: Elimination and mass balance of radioactivity in urine and feces. Type of series: in vivo, humans. Conditions: human. As to the method: (§1) The study was a single-center, open-label, and non-randomized study with two distinct elements: a run-in phase to establish a more defined dietary background of dietary flavanols and procyanidins and the subsequent ^14C-EC ADME study (Fig. 1B). Participants (n = 12) were enrolled in the run-in phase (day –17 to day –4) and asked to supplement their daily diet for 14 days with a commercially available flavanol-containing cocoa-based drink (250 mg cocoa flavanols; 40 mg of EC). This was followed by a 4-day period (day –4 to 0) of a low-flavanol diet. One day (study day -1) prior to the initialization of the ^14C-EC ADME study, all eligible participants were accommodated under controlled conditions at a metabolic research facility (Covance Clinical Pharmacology Inc., Wisconsin) until completion of the study. Based on the compliance of the first part of the study, 8 participants were selected to participate in the ^14C-EC ADME study. During the ^14C-EC ADME study (Fig. 1B.), volunteers received a low-flavanol, standardized high-fiber diet, and were encouraged to maintain an adequate level of hydration (water ad libitum). Volunteers were asked to fast for 8 h before the initiation of the study and for at least 4 h after the intake of the ^14C-EC test drink (water ad libitum). Venous blood samples were taken using Vacutainer collection tubes, containing potassium EDTA at 0 h (just prior to ^14C-EC ingestion), and at 0.25, 0.5, 1, 1.5, 2, 2.5, 3, 4, 6, 8, 10, 12, 16, 24, 36, and 48 h after test drink consumption. Plasma was obtained by whole blood centrifugation at 2000 × g for 15 min at 5 °C, separated into aliquots and stored at −80 °C until analysis. All urine and feces from the time just prior to the consumption of the test drink were collected at different time intervals for radioactivity and metabolite profiling. Clinical parameters and laboratory evaluations of participants were assessed at screening, on study day –1, and after completing the study, as detailed in Supplementary Methods.
The 50-mL drink consisted of an aqueous solution of ^14C-EC (specific activity 14.5 μCi μmol^−1) and delivered 60 mg (207 μmol) of EC and 300 μCi (660 × 10^6 dpm) of radioactivity. The drink was prepared one day before consumption to verify correctness of composition and stability. Volunteers received the ^14C-EC test drink (50 mL), followed by 3 × 50 mL of water that was used to rinse the test drink container, and 40 mL of water. The radioactivity remaining in the test drink containers was measured, and the residual radioactivity recovered from each container was subtracted from the amount administered to the corresponding volunteer.
Radioactivity in aliquots of plasma and urine was measured by liquid scintillation counting. Blood and feces were dried and oxidized by combustion using a 307 Sample Oxidizer (Packard Instrument Company, Meriden, NH) before being analyzed by liquid scintillation counting.

The nature of series [2]: Adverse events and clinical/laboratory evaluation in the 14C-EC ADME study. The series is classed as in vivo, humans. As to conditions: human. Here is the method:
as §1, with “Methods. […]” for “Methods.”

Series [3] can be described thus: SREM profile in plasma after intragastric 14C-EC, mouse. The series is classed as in vivo, C57BL/6 mice. Conditions: 30 min after 2 mg/kg BW intragastric 14C-EC. Here is the method: To assess the profile of SREMs in rodents, Sprague-Dawley rats (male, 9–10 week old, 270 ± 16 g of BW) and C57BL/6 mice (20 ± 1 g) were administered by gavage 2 mg/kg BW of ^14C-EC (corresponding to ≈10.6 μCi/rat and 6.7 μCi/mouse). Blood samples were collected 30 min after administration. Plasma was obtained by centrifugation at 4 °C for 15 min at 1800xg, separated in aliquots and analyzed by HPLC as described previously[18] with an on-line radioactivity detector (Radiomatic 610TR Flow System Analyzer, PerkinElmer, Inc., Waltham, Mass).

Take `Oc1cc(O)c2c(c1)O[C@H](c1ccc(O)c(O)c1)[C@H](O)C2` [^14C-EC, [2-^14C](−)-epicatechin]: in series [1] (oral 60 mg 14C-EC), the “Accumulated radioactivity voided in feces, of ingested 14C-EC” value amounted to 12 ± 3%; the “Radioactivity in urine and feces combined, of intake” value came to 95 ± 1%; the “Radioactivity not recovered in the collected samples” value turned out to be 5 ± 1%. Besides, the “Accumulated radioactivity eliminated in urine, of amount ingested” value in series [1] (oral 60 mg 14C-EC, liquid scintillation counting, 0–48 h) came to 82 ± 5%. Besides, in series [1] (oral 60 mg, n=8), the “Ingested EC absorbed” value was 82 ± 5%. Moreover, in series [2], the “Severity of reported adverse events” value is recorded as “all reported adverse events were mild in severity”. For the same compound, in series [2] (reported by 3 different participants, none related to study treatment), the “Number of adverse events reported” value amounted to 6. In series [2] (single oral 60 mg, 300 μCi), the “Adverse events related to the study treatment” value is “No adverse events related to the study treatment were recorded”; the “Clinical changes in laboratory evaluations, physical examinations and 12-lead electrocardiograms” value is “no significant clinical changes”. Besides, in series [3], the Detection in plasma result was “No unmetabolized EC was detected”.
